Source: PMC3252304, “Hydroxybenzothiazoles as New Nonsteroidal Inhibitors of 17β-Hydroxysteroid Dehydrogenase Type 1 (17β-HSD1)” (PLoS ONE, 2012)

Columns and labels:
human 17β-HSD1 = target: T1, human 17β-HSD1 (Homo sapiens, UniProt P14061); assay: 17β-HSD1 cell free assay (placental cytosolic enzyme, [3H]E1 to E2, HPLC radiodetection); format: biochemical; details: for IC50 / inhibition at 1 µM / 17β-HSD1 % inhib. (1µM): human placenta cytosolic fraction, [3H]E1 + E1 500 nM, NADH 500 µM; for IC50: mean of three determinations; for inhibition at 1 µM / 17β-HSD1 % inhib. (1µM): inhibitor 1 µM, less than 10% = inactive, ni = no inhibition; for inhibition at 1 µM: read-out: 17β-HSD1 % inhib. (1µM)
T1 construct: In the cell free assay, the placental cytosolic enzyme was used; from tissue; host or cells: human placenta, cytosolic fraction, ammonium sulfate precipitate
T1 sequence (P14061 1-328): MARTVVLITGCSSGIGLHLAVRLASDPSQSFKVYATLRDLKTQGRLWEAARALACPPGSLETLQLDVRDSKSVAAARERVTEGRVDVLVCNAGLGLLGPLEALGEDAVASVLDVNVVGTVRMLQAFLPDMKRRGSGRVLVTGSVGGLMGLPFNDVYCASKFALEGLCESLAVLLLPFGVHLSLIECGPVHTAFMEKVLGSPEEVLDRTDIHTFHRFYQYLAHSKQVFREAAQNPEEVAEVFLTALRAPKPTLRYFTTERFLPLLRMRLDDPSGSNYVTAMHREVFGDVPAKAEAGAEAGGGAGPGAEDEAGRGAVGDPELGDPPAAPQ
Protocol: In the cell free assay, the placental cytosolic enzyme was used. Tritiated E1 (final concentration: 500 nM) was incubated with 17β-HSD1, NADH (500 µM), and inhibitor as previously described [59]. After high performance liquid chromatography (HPLC) separation of substrate and product, the amount of labeled E2 formed was quantified.
Inhibitory activities were evaluated by an established method with minor modifications. Briefly, the enzyme preparation was incubated with NADH [500 µM] in the presence of potential inhibitors at 37 °C in a phosphate buffer (50 mM) supplemented with 20 % of glycerol and EDTA (1mM). Inhibitor stock solutions were prepared in DMSO. The final concentration of DMSO was adjusted to 1 % in all samples. The enzymatic reaction was started by addition of a mixture of unlabelled- and [2, 4, 6, 7-^3H]-E1 (final concentration: 500 nM, 0.15 µCi). After 10 min, the incubation was stopped with HgCl2 and the mixture was extracted with diethylether. After evaporation, the steroids were dissolved in acetonitrile. E1 and E2 were separated using acetonitrile/water (45:55) as mobile phase in a C18 reverse phase chromatography column (Nucleodur C18 Gravity, 3 µm, Macherey-Nagel, Düren) connected to a HPLC-system (Agilent 1100 Series, Agilent Technologies, Waldbronn). Detection and quantification of the steroids were performed using a radioflow detector (Berthold Technologies, Bad Wildbad). The conversion rate was calculated after analysis of the resulting chromatograms according to the following equation: % conversion = % E2/(% E2 + % E1) × 100. Each value was calculated from at least three independent experiments.

human 17β-HSD2 = target: T2, human 17β-HSD2 (Homo sapiens, UniProt P37059); assay: 17β-HSD2 cell free assay (placental microsomal enzyme, [3H]E2 to E1, HPLC radiodetection); format: biochemical; details: for IC50: human placenta microsomal fraction, [3H]E2 + E2 500 nM, NAD+ 1500 µM, mean of three determinations; for SF, selectivity factor = IC50(17β-HSD2)/IC50(17β-HSD1): ratio of cell free IC50 values
T2 construct: 17β-HSD2 was obtained from the microsomal fraction; from tissue; host or cells: human placenta, microsomal fraction
T2 sequence (P37059 1-387): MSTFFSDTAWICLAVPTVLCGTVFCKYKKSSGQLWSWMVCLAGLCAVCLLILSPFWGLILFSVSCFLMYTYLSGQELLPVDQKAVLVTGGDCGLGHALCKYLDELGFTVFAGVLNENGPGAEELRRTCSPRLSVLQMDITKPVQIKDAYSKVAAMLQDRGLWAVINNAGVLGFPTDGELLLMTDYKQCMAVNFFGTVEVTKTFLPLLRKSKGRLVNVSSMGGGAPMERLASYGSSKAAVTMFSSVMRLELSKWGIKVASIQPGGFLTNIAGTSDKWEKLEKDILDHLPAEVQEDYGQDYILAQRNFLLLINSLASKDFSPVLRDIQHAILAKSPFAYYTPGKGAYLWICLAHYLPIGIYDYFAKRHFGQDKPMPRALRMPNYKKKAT
Protocol: Placental microsomal 17β-HSD2 was incubated with tritiated E2 (final concentration: 500 nM) in the presence of NAD^+ (1500 µM) and inhibitor. Separation and quantification of labeled substrate (E2) and product (E1) was performed by HPLC using radiodetection.
17β-HSD1 and 17β-HSD2 were obtained from human placenta according to previously described procedures. Fresh human placenta was homogenized and cytosolic fraction and microsomes were separated by centrifugation. For the partial purification of 17β-HSD1, the cytosolic fraction was precipitated with ammonium sulfate. 17β-HSD2 was obtained from the microsomal fraction.
Inhibition of 17β-HSD2. The 17β-HSD2 inhibition assay was performed similarly to the 17β-HSD1 procedure. The microsomal fraction was incubated with NAD^+ [1500 µM], test compound and a mixture of unlabelled- and [2, 4, 6, 7-^3H]-E2 (final concentration: 500 nM, 0.11 µCi) for 20 min at 37 °C. Further treatment of the samples and HPLC separation were carried out as mentioned above.
The conversion rate was calculated after analysis of the resulting chromatograms according to the following equation: % conversion = % E1/(% E1 + % E2) × 100.

17β-HSD1 = system: 17β-HSD1; parameters: method as in PMID 12223444; details: recombinant protein, NADPH as cosubstrate; value as described; read-out: 17β-HSD1 IC50 (external reference); cited from earlier work
ERs = system: ERs; parameters: method as in PMID 15743715, PMID 16728493; details: RBA(E2) = 100%; cited from earlier work

O=C(c1cccc(O)c1)c1nc2ccccc2s1 [Compound 12, 1,3-benzothiazol-2-yl(3-hydroxyphenyl)methanone]
fold lower 17β-HSD1 inhibitory activity than 6 (human 17β-HSD1; compared with compound 6): 8 fold
IC50 (human 17β-HSD1): 365 nM
inhibition at 1 µM (human 17β-HSD1): 75%
IC50 (human 17β-HSD2): 1360 nM
SF, selectivity factor = IC50(17β-HSD2)/IC50(17β-HSD1) (human 17β-HSD2): 4

COc1ccc2nc(Cc3ccc(O)cc3)sc2c1 [Compound 10]
17β-HSD1 % inhib. (1µM) (human 17β-HSD1): ni

COc1ccc2nc(C(=O)Nc3cccc(O)c3)sc2c1 [Compound 17]
inhibition at 1 µM (human 17β-HSD1): 31%

C[C@]12CC[C@@H]3c4ccc(O)cc4CC[C@H]3[C@@H]1C[C@H](CCCCCCCCC(=O)OCC1OC(n3cnc4c(N)ncnc43)C(O)C1O)[C@@H]2O (stereo partly shown) [EM-1745]
IC50 (17β-HSD1): 52 nM

O=C(Nc1ccccc1O)c1nc2ccc(O)cc2s1 [Compound 16]
17β-HSD1 % inhib. (1µM) (human 17β-HSD1): ni

COc1cccc(C(=O)c2nc3ccc(OC)cc3s2)c1 [Compound 6i]
17β-HSD1 % inhib. (1µM) (human 17β-HSD1): ni.

COc1ccc2nc(C(=O)Nc3ccccc3O)sc2c1 [Compound 15]
17β-HSD1 % inhib. (1µM) (human 17β-HSD1): ni

COc1ccc(C(=O)Nc2nc3ccc(O)cc3s2)cc1 [Compound 19]
17β-HSD1 % inhib. (1µM) (human 17β-HSD1): ni.

COC(c1cccc(O)c1)c1nc2ccc(O)cc2s1 (stereo not shown) [Compound 8]
inhibition at 1 µM (human 17β-HSD1): 13%

Cc1nc(C(=O)c2cccc(O)c2)sc1CCO [Compound 5, [5-(2-hydroxyethyl)-4-methyl-1,3-thiazol-2-yl](3-hydroxyphenyl)methanone]
inhibition at 1 µM (human 17β-HSD1): 34%

O=C(Nc1cccc(O)c1)c1nc2ccc(O)cc2s1 [Compound 18]
IC50 (human 17β-HSD1): 1310 nM
inhibition at 1 µM (human 17β-HSD1): 40%
IC50 (human 17β-HSD2): 3810 nM
SF, selectivity factor = IC50(17β-HSD2)/IC50(17β-HSD1) (human 17β-HSD2): 3

O=C(c1cccc(O)c1)c1nc2ccc(O)cc2s1 [Compound 6, (6-hydroxy-1,3-benzothiazol-2-yl)(3-hydroxyphenyl)methanone]
IC50 (human 17β-HSD1): 44 nM
inhibition at 1 µM (human 17β-HSD1): 91%
IC50 (human 17β-HSD2): 1040 nM
SF, selectivity factor = IC50(17β-HSD2)/IC50(17β-HSD1) (human 17β-HSD2): 24

Oc1ccc(Cc2nc3ccc(O)cc3s2)cc1 [Compound 11]
inhibition at 1 µM (human 17β-HSD1): 24%

Oc1cccc(NC(=S)Nc2nc3ccc(O)cc3s2)c1 [Compound 24]
17β-HSD1 % inhib. (1µM) (human 17β-HSD1): moderate inhibitory activity
inhibition at 1 µM (human 17β-HSD1): 62%

O=C(Nc1nc2ccc(O)cc2s1)c1cccc(O)c1 [Compound 21]
inhibition at 1 µM (human 17β-HSD1): 83%
IC50 (human 17β-HSD2): 9260 nM

COc1ccc(C(=O)c2nc3ccc(O)cc3s2)cc1 [Compound 13, (6-hydroxy-1,3-benzothiazol-2-yl)(4-methoxyphenyl)methanone]
inhibition at 1 µM (human 17β-HSD1): 27%

O=C(Nc1cccc(O)c1)Nc1nc2ccc(O)cc2s1 [Compound 23]
17β-HSD1 % inhib. (1µM) (human 17β-HSD1): inactive and no inhibition and ni.

O=C(c1ccc(O)cc1)c1nc2ccc(O)cc2s1 [Compound 14, (6-hydroxy-1,3-benzothiazol-2-yl)(4-hydroxyphenyl)methanone]
IC50 (human 17β-HSD1): 243 nM
inhibition at 1 µM (human 17β-HSD1): 85%
IC50 (human 17β-HSD2): 2470 nM
SF, selectivity factor = IC50(17β-HSD2)/IC50(17β-HSD1) (human 17β-HSD2): 10

O=C(Nc1nc2ccc(O)cc2s1)c1ccc(O)cc1 [Compound 20]
inhibition at 1 µM (human 17β-HSD1): 39%

O=S(=O)(Nc1nc2ccc(O)cc2s1)c1cccc(O)c1 [Compound 22]
17β-HSD1 % inhib. (1µM) (human 17β-HSD1): inactive and ni

Oc1cccc(C(O)c2nc3ccc(O)cc3s2)c1 (stereo not shown) [Compound 7]
inhibition at 1 µM (human 17β-HSD1): 28%

O=C(Cc1cccc(O)c1)Nc1nc2ccc(O)cc2s1 [Compound 25]
17β-HSD1 % inhib. (1µM) (human 17β-HSD1): inactive and ni

C[C@]12CC[C@@H]3c4ccc(O)cc4CC[C@H]3[C@@H]1CCC2=O [Compound E1, estrone]
RBA for the ERs (ERs): about 10%

CSC(c1ccc(O)cc1)c1nc2ccc(O)cc2s1 (stereo not shown) [Compound 9]
17β-HSD1 % inhib. (1µM) (human 17β-HSD1): ni
inhibition at 1 µM (human 17β-HSD1): 7%
